Test results: patent US5892029A, “3-hydroxy-2(1H)-pyridinone chelating agents” (priority 1997, dated 1999)
Like-named read-outs stand apart in the source and are kept apart here.

Experiments:
[1] = 30 μmol/kg i.p. at 1 h; reported previously (footnote e); cited from earlier work
[2] = assay type: in vivo, mice
Experimental: The test of acute toxicity of these novel ligands was carried out as follows. […] The ligand was dissolved in 0.5 to 1.0 ml of saline at pH 7 to 8. After a period of observation, the mice were killed, selected tissues were removed and fixed for histopathological examination,and unusual findings at autopsy were recorded.

[3] = Liquid/liquid extraction of Pu(IV) from aqueous solution (Tables 7 and 8)
Experimental: Liquid/liquid extractions were performed with the radioactive plutonium isotope ^242 Pu at the Lawrence Livermore National Laboratory's Glenn T. Seaborg Institute for Transactinium Science, Livermore, Calif. The aqueous phase contained ^242 Pu, while the organic phases contained 3,2-HOPO ligands at 2-5 mM concentration. Kinetic studies were the primary method used to determine the efficacy of the specific ligand in organic solvent. Generally, five microcentrifuge tubes were prepared with the same organic and aqueous phases, and shaken with a vortex-style mixer for 1, 5, 10, and 20 minutes. After mixing, an aliquot of each phase was pipetted from the tube into a scintillation vial, mixed with a scintillation cocktail, and scintillation counted to determine the amount of the radioactive species present in each phase after extraction.

[4] = protocol IA: 100 μmol/kg × 2 daily, 6 d, two moribund mice autopsied on d 3
[5] = protocol IA: 100 μmol/kg × 2 daily, 3 d, mean ± SD
[6] = protocol IA: 100 μmol/kg × 2 daily, 11 d, mean ± SD
[7] = protocol I: 100 μmol/kg × 10 daily i.p., 11 d, mean ± SD
[8] = protocol I: 100 μmol/kg × 10 daily i.p., 21 d, mean ± SD
[9] = protocol II: 500 μmol/kg × 2 in 8 h i.p., 8 d, mean ± SD
[10] = octanol, 0.10M aqueous, 1.0 min
[11] = octanol, 0.10M aqueous, 5.0 min
[12] = octanol, 0.10M aqueous, 10.0 min
[13] = octanol, 0.10M aqueous, 20.0 min
[14] = octanol, 5.0M aqueous, 10.0 min
[15] = octanol, 5.0M aqueous, 20.0 min

O=C(NCCCN(CCCCN(CCCNC(=O)c1cccc(=O)n1O)C(=O)c1cccc(=O)n1O)C(=O)c1cccc(=O)n1O)c1cccc(=O)n1O [3,4,3-LI(1,2-HOPO)]
238Pu excreta: feces and GI contents [1]: 57% of injected ^238 Pu
238Pu excreta: urine 0-24 h [1]: 23% of injected ^238 Pu
238Pu in kidneys at 24 h [1]: 0.2% of injected ^238 Pu
238Pu in liver at 24 h [1]: 8.9 ± 1.7% of injected ^238 Pu
238Pu in skeleton at 24 h [1]: 7.5 ± 0.7% of injected ^238 Pu
238Pu in soft tissue at 24 h [1]: 1.6 ± 0.6% of injected ^238 Pu
238Pu in whole body at 24 h [1]: 18 ± 1.7% of injected ^238 Pu

O=C(NCCCCN(CCCNC(=O)c1cccc(=O)n1O)C(=O)c1cccc(=O)n1O)c1cccc(=O)n1O [3,4-LI(1,2-HOPO)]
238Pu excreta: feces and GI contents [1]: 58% of injected ^238 Pu
238Pu excreta: urine 0-24 h [1]: 7.9% of injected ^238 Pu
238Pu in kidneys at 24 h [1]: 0.6% of injected ^238 Pu
238Pu in liver at 24 h [1]: 18 ± 4.8% of injected ^238 Pu
238Pu in skeleton at 24 h [1]: 9.9 ± 3.6% of injected ^238 Pu
238Pu in soft tissue at 24 h [1]: 5.8 ± 1.3% of injected ^238 Pu
238Pu in whole body at 24 h [1]: 34 ± 9.2% of injected ^238 Pu

Cn1ccc(C(=O)NCCCNC(=O)c2ccn(C)c(=O)c2O)c(O)c1=O [3-LI-Me-3,2-HOPO, 1,3-bis[(3-hydroxy-1-methyl-2-oxo-1,2-dihydropyridin-4-yl)carboxamido] propane]
toxicity / mortality (in words) ([2]; mouse, in vivo): all mice were dead by d 3
no. of survivors ([2]; protocol IA: 100 μmol/kg × 2 daily, 6 d, of 10 mice): 0
body weight [2, 4]: 89 ± 4 percent control
kidney weight [2, 4]: 222 ± 29 percent control
plasma urea N [2, 4]: > 1800 percent control

Cn1ccc(C(=O)NCCCCCCNC(=O)c2ccn(C)c(=O)c2O)c(O)c1=O [6-LI-Me-3,2-HOPO, 1,6-bis[(3-hydroxy-1-methyl-2-oxo-1,2-dihydropyridin-4-yl)carboxamido]hexane]
body weight [2, 5]: 83 ± 3 percent control
kidney weight [2, 5]: 132 ± 11 percent control
plasma urea N [2, 5]: 343 ± 140 percent control
no. of survivors ([2]; protocol IA: 100 μmol/kg × 2 daily, 3 d, of 5 mice): 5
body weight [2, 6]: 101 ± 5 percent control
kidney weight [2, 6]: 112 ± 13 percent control
plasma urea N [2, 6]: 92 ± 6 percent control
no. of survivors ([2]; protocol IA: 100 μmol/kg × 2 daily, 11 d, of 5 mice): 3

CC(=O)N(O)CCCCCNC(=O)CCC(=O)N(O)CCCCCNC(=O)CCC(=O)N(O)CCCCCN [DFO, desferrioxamine B]
238Pu excreta: feces and GI contents [1]: 15.1% of injected ^238 Pu
238Pu excreta: urine 0-24 h [1]: 38% of injected ^238 Pu
238Pu in kidneys at 24 h [1]: 1.8% of injected ^238 Pu
238Pu in liver at 24 h [1]: 19 ± 13% of injected ^238 Pu
238Pu in skeleton at 24 h [1]: 20 ± 11% of injected ^238 Pu
238Pu in soft tissue at 24 h [1]: 4.5 ± 1.4% of injected ^238 Pu
238Pu in whole body at 24 h [1]: 45 ± 2.5% of injected ^238 Pu

CC(=O)N(O)CCCCCNC(=O)CCC(=O)N(O)CCCCCNC(=O)CCC(=O)N(O)CCCCCNC(=O)c1cccc(=O)n1O [DFO-(1,2-HOPO)]
238Pu excreta: feces and GI contents [1]: 46.7% of injected ^238 Pu
238Pu excreta: urine 0-24 h [1]: 9.5% of injected ^238 Pu
238Pu in kidneys at 24 h [1]: 0.1% of injected ^238 Pu
238Pu in liver at 24 h [1]: 5.1 ± 2.2% of injected ^238 Pu
238Pu in skeleton at 24 h [1]: 6.0 ± 0.5% of injected ^238 Pu
238Pu in soft tissue at 24 h [1]: 2.3 ± 0.5% of injected ^238 Pu
238Pu in whole body at 24 h [1]: 13 ± 2.9% of injected ^238 Pu

CC(=O)N(O)CCCCCNC(=O)CCC(=O)N(O)CCCCCNC(=O)CCC(=O)N(O)CCCCCNC(=O)c1ccn(C)c(=O)c1O [DFO-Me-3,2-HOPO]
238Pu excreta: feces and GI contents [1]: 26.4% of injected ^238 Pu
238Pu excreta: urine 0-24 h [1]: 21% of injected ^238 Pu
238Pu in kidneys at 24 h [1]: 3.0% of injected ^238 Pu
238Pu in liver at 24 h [1]: 13 ± 3.5% of injected ^238 Pu
238Pu in skeleton at 24 h [1]: 17 ± 2.4% of injected ^238 Pu
238Pu in soft tissue at 24 h [1]: 19 ± 3.0% of injected ^238 Pu
238Pu in whole body at 24 h [1]: 53 ± 3.4% of injected ^238 Pu

Cn1ccc(C(=O)NCCN(CCNC(=O)c2ccn(C)c(=O)c2O)CCN(CCNC(=O)c2ccn(C)c(=O)c2O)CCNC(=O)c2ccn(C)c(=O)c2O)c(O)c1=O [H(2,2)-Me-3,2-HOPO, N,N,N',N'-tetrakis[(3-hydroxy-1-methyl-2-oxo-1,2-dihydropyridin-4-yl)carboxamido-ethyl]-ethylenediamine]
body weight [2, 7]: 92 ± 6 percent control
plasma urea N [2, 7]: 223 ± 28 percent control
no. of survivors ([2]; protocol I: 100 μmol/kg × 10 daily i.p., 11 d, of 5 mice): 5
body weight [2, 8]: 87 ± 9 percent control
plasma urea N [2, 8]: 225 ± 188 percent control
no. of survivors ([2]; protocol I: 100 μmol/kg × 10 daily i.p., 21 d, of 5 mice): 5
body weight [2, 9]: 94 ± 6 percent control
plasma urea N [2, 9]: 169 ± 10 percent control
no. of survivors ([2]; protocol II: 500 μmol/kg × 2 in 8 h i.p., 8 d, of 19 (TREN) or 10 (H(2,2)) mice): 3

CCCCCCCCCCNC(=O)c1ccn(C)c(=O)c1O [Me-2-HOPO-Decylamide]
% Pu(IV) Extracted ([3]; MIBK, 0.10M aqueous, 1.0 min): 98.2 ± 4.5%
Partition Coefficient ([3]; MIBK, 0.10M aqueous, 1.0 min): 53.63 ± 1.60
% Pu(IV) Extracted ([3]; MIBK, 0.10M aqueous, 5.0 min): 95.9 ± 4.4%
Partition Coefficient ([3]; MIBK, 0.10M aqueous, 5.0 min): 23.40 ± 1.14
% Pu(IV) Extracted ([3]; MIBK, 0.10M aqueous, 10.0 min): 97.7 ± 4.5%
Partition Coefficient ([3]; MIBK, 0.10M aqueous, 10.0 min): 42.43 ± 1.43
% Pu(IV) Extracted ([3]; MIBK, 0.10M aqueous, 20.0 min): 93.2 ± 4.3%
Partition Coefficient ([3]; MIBK, 0.10M aqueous, 20.0 min): 13.63 ± 0.82
% Pu(IV) Extracted ([3]; MIBK, 5.0M aqueous, 1.0 min): 97.9 ± 4.5%
Partition Coefficient ([3]; MIBK, 5.0M aqueous, 1.0 min): 46.00 ± 1.48
% Pu(IV) Extracted ([3]; MIBK, 5.0M aqueous, 5.0 min): 97.9 ± 4.5%
Partition Coefficient ([3]; MIBK, 5.0M aqueous, 5.0 min): 46.62 ± 1.43
% Pu(IV) Extracted ([3]; MIBK, 5.0M aqueous, 10.0 min): 95.8 ± 4.4%
Partition Coefficient ([3]; MIBK, 5.0M aqueous, 10.0 min): 22.87 ± 1.07
% Pu(IV) Extracted ([3]; MIBK, 5.0M aqueous, 20.0 min): 81.9 ± 3.8%
Partition Coefficient ([3]; MIBK, 5.0M aqueous, 20.0 min): 4.52 ± 0.35
% Pu(IV) Extracted [3, 10]: 68.9 ± 3.3%
Partition Coefficient [3, 10]: 2.22 ± 0.19
% Pu(IV) Extracted [3, 11]: 96.2 ± 4.5%
Partition Coefficient [3, 11]: 25.39 ± 1.12
% Pu(IV) Extracted [3, 12]: 95.2 ± 4.4%
Partition Coefficient [3, 12]: 19.71 ± 1.00
% Pu(IV) Extracted [3, 13]: 92.4 ± 4.3%
Partition Coefficient [3, 13]: 12.11 ± 0.75
% Pu(IV) Extracted ([3]; octanol, 5.0M aqueous, 1.0 min): 98.3 ± 4.6%
Partition Coefficient ([3]; octanol, 5.0M aqueous, 1.0 min): 56.64 ± 1.58
% Pu(IV) Extracted ([3]; octanol, 5.0M aqueous, 5.0 min): 96.4 ± 4.5%
Partition Coefficient ([3]; octanol, 5.0M aqueous, 5.0 min): 26.98 ± 1.13
% Pu(IV) Extracted [3, 14]: 93.6 ± 4.4%
Partition Coefficient [3, 14]: 14.74 ± 0.83
% Pu(IV) Extracted [3, 15]: 88.3 ± 4.1%
Partition Coefficient [3, 15]: 7.51 ± 0.53

CCCCCCCCNC(=O)c1ccn(C)c(=O)c1O [Me-2-HOPO-Octylamide]
% Pu(IV) Extracted ([3]; MIBK, 0.10M aqueous, 1.0 min): 95.6 ± 4.4%
Partition Coefficient ([3]; MIBK, 0.10M aqueous, 1.0 min): 21.90 ± 1.09
% Pu(IV) Extracted ([3]; MIBK, 0.10M aqueous, 5.0 min): 91.8 ± 4.3%
Partition Coefficient ([3]; MIBK, 0.10M aqueous, 5.0 min): 11.22 ± 0.73
% Pu(IV) Extracted ([3]; MIBK, 0.10M aqueous, 10.0 min): 96.8 ± 4.5%
Partition Coefficient ([3]; MIBK, 0.10M aqueous, 10.0 min): 30.07 ± 1.26
% Pu(IV) Extracted ([3]; MIBK, 0.10M aqueous, 20.0 min): 96.5 ± 4.5%
Partition Coefficient ([3]; MIBK, 0.10M aqueous, 20.0 min): 27.56 ± 0.76
% Pu(IV) Extracted ([3]; MIBK, 5.0M aqueous, 1.0 min): 98.8 ± 4.6%
Partition Coefficient ([3]; MIBK, 5.0M aqueous, 1.0 min): 79.22 ± 1.71
% Pu(IV) Extracted ([3]; MIBK, 5.0M aqueous, 5.0 min): 98.2 ± 4.6%
Partition Coefficient ([3]; MIBK, 5.0M aqueous, 5.0 min): 53.99 ± 1.54
% Pu(IV) Extracted ([3]; MIBK, 5.0M aqueous, 10.0 min): 96.4 ± 4.5%
Partition Coefficient ([3]; MIBK, 5.0M aqueous, 10.0 min): 26.82 ± 1.18
% Pu(IV) Extracted ([3]; MIBK, 5.0M aqueous, 20.0 min): 83.9 ± 3.9%
Partition Coefficient ([3]; MIBK, 5.0M aqueous, 20.0 min): 5.20 ± 0.40
% Pu(IV) Extracted [3, 10]: 94.4 ± 4.4%
Partition Coefficient [3, 10]: 16.83 ± 0.89
% Pu(IV) Extracted [3, 11]: 94.5 ± 4.5%
Partition Coefficient [3, 11]: 17.10 ± 1.12
% Pu(IV) Extracted [3, 12]: 92.1 ± 4.3%
Partition Coefficient [3, 12]: 11.71 ± 0.72
% Pu(IV) Extracted [3, 13]: 91.2 ± 4.2%
Partition Coefficient [3, 13]: 10.32 ± 0.67
% Pu(IV) Extracted ([3]; octanol, 5.0M aqueous, 1.0 min): 97.8 ± 4.1%
Partition Coefficient ([3]; octanol, 5.0M aqueous, 1.0 min): 44.22 ± 1.43
% Pu(IV) Extracted ([3]; octanol, 5.0M aqueous, 5.0 min): 97.4 ± 4.5%
Partition Coefficient ([3]; octanol, 5.0M aqueous, 5.0 min): 36.91 ± 1.30
% Pu(IV) Extracted [3, 14]: 95.2 ± 4.4%
Partition Coefficient [3, 14]: 19.78 ± 0.98
% Pu(IV) Extracted [3, 15]: 91.4 ± 4.3%
Partition Coefficient [3, 15]: 10.69 ± 0.67
